Laboratory results published in patent publication US20210315869A1, “COMPOUNDS AND METHODS FOR CSK MODULATION AND INDICATIONS THEREFOR” (Plexxikon Inc., priority 2020, published 2021).

Experiments:
[1] = target: T1, CSK (Homo sapiens, UniProt P41240); assay: Human CSK enzymatic assay (AlphaScreen, Poly (Glu4-Tyr) substrate); type: biochemical; settings: 100 uM ATP; read-out: CSK IC50 (μM) COFACTOR: 100 uM ATP
T1 construct: purchased Thermo Fisher
Protocol: This assay measures the ability of CSK to phosphorylate a biotinylated peptide containing multiple tyrosine residues in vitro. The CSK enzyme was purchased from Thermo Fisher. The biotinylated Poly (Glu4-Tyr) peptide substrate was purchased from Sigma-Aldrich. The CSK enzyme assay was performed using 0.75 ng CSK enzyme and 30 nM Poly (Glu4-Tyr) substrate in the presence of 25 mM Hepes pH 7.5, 5 mM Mg Acetate, 0.1% NP-40, 1 mM DTT, 0.01% BSA, and 100 μM ATP. A 19 μL volume of the above reaction mixture was added to wells of 384-well AlphaPlate (PerkinElmer GA, USA) containing 1 μL of various concentrations of test compound or DMSO vehicle and incubated for 60 minutes at room temperature. 16 wells containing all the components of reaction mixture and 5% DMSO serve as high control. 16 wells containing all the components except ATP of reaction mixture and 5% DMSO served as low control. The enzymatic reaction was stopped by the addition of 5 μL stop/detection mixture containing 25 mM Hepes pH 7.5 100 mM EDTA, and 5 μg/mL streptavidin-coated AlphaScreen donor beads (PerkinElmer GA, USA) and incubated for 20 minutes. A 5 μL mixture containing 25 mM Hepes pH 7.5, 100 mM EDTA, and 5 μg/mL anti-phosphotyrosine antibody PY20-coated AlphaScreen acceptor beads (PerkinElmer GA, USA) was added and the plate was incubated for 1 hour at room temperature. The streptavidin donor beads bind to the biotin moiety on the biotinylated Poly (Glu4-Tyr) substrate and the PY20 antibody-coated acceptor beads bind to tyrosine residues on the substrate that have been directly phosphorylated by CSK. Upon excitation of these beads with laser light at 680 nm, singlet oxygen was produced. This singlet oxygen was rapidly quenched, unless the AlphaScreen PY20 acceptor beads are in close proximity, in which case a proximity signal can be measured at 580 nm. In the presence of catalytic activity, there was a very strong proximity signal. Selective CSK inhibitors affect a decrease in this proximity signal through a decrease in phosphorylation of the Poly (Glu4-Tyr) substrate. The percentage of inhibition at individual concentrations relative to high and low controls was calculated. The data were analyzed by using nonlinear regression to generate IC50 values. Human LCK enzymatic assay

[2] = tested on: Jurkat/NFAT-RE cells; assay: NFAT reporter assay (luciferase) in Jurkat/NFAT-RE cells; type: cell-based; settings: Homo sapiens, 0.02 μg/mL anti-CD3 antibody OKT3, 3 hours, read-out: Jurkat EC50 (uM) Cell Assay: Reporter Cell Variant: NFAT response element
From the text: To assess the ability of CSK inhibitors to activate LCK and stimulate signaling downstream of the T-cell receptor, an NFAT reporter assay was used for monitoring of LCK activation in cells through the activation of LCK-dependent signaling through a reporter assay. The Jurkat T-cell cell line was genetically engineered to express a luciferase reporter that is regulated by the NFAT-response element. (Clipstone, N. A., & Crabtree, G. R., Identification of calcineurin as a key signalling enzyme in T-lymphocyte activation, Nature, 357(6380), 695-697, 1992). Stimulation of the T-cell receptor with anti-CD3 antibody increases the expression of the luciferase reporter. To test the ability of CSK inhibitors to stimulate LCK and downstream T-cell signaling, the cells were stimulated with a suboptimal concentration of anti-CD3 ligand, to measure the ability of CSK inhibitors to increase luciferase expression.
This assay measures the signaling activity downstream of the T-cell receptor, specifically the ability of the NFAT transcription factor to be translocated to the nucleus and induce expression of a firefly luciferase gene. Jurkat/NFAT-RE cells stably expressing the NFAT reporter construct were purchased from BPS Bioscience. The assay was performed by plating 40,000 Jurkat/NFAT-RE cells in a 50 μL volume of serum-free growth media in a 96-well plate. Following an overnight incubation, the cells were treated with CSK inhibitors and 0.02 μg/mL anti-CD3 antibody OKT3 (BD Bioscience) for 3 hours at 37° C. High control wells were stimulated with DMSO and 5 μg/mL OKT3 to maximally stimulate the NFAT reporter, and low control wells were stimulated with DMSO and 0.02 μg/mL OKT3. Following the 3 hour incubation, the cells were assayed for viability using CellTiter-Fluor™ (Promega), and for luciferase expression using ONE-Glo™ (Promega). The ONE-Glo™ signal was normalized to the CellTiter-Fluor™ signal, and the percentage of NFAT activation relative to high and low controls was calculated. The data were analyzed by using nonlinear regression to generate EC50 values. Selective CSK inhibitors affect an increase in luciferase expression in the presence of low level stimulation of the T-cell receptor.

[3] = target: T2, LCK (Homo sapiens, UniProt P06239); assay: Human LCK enzymatic assay (AlphaScreen, Poly (Glu4-Tyr) substrate); type: biochemical; settings: 100 uM ATP; read-out: LCK IC50 (uM) COFACTOR: 100 uM ATP
T2 construct: purchased ProQinase
Protocol: This assay measures the ability of LCK to phosphorylate a biotinylated peptide containing multiple tyrosine residues in vitro. The LCK enzyme was purchased from ProQinase. The biotinylated Poly (Glu4-Tyr) peptide substrate was purchased from Sigma-Aldrich. The LCK enzyme assay was performed using 1 ng LCK enzyme and 30 nM Poly (Glu4-Tyr) substrate in the presence of 25 mM Hepes pH 7.5, 10 mM MnCl2, 50 mM NaCl, 0.01% Tween-20, 0.5 mM DTT, 0.01% BSA, and 100 μM ATP. A 19 μL volume of the above reaction mixture was added to wells of 384-well AlphaPlate (PerkinElmer GA, USA) containing 1 μL of various concentrations of test compound or DMSO vehicle and incubated for 40 minutes at 25° C. 16 wells containing all the components of reaction mixture and 5% DMSO served as high control. 16 wells containing all the components except ATP of reaction mixture and 5% DMSO served as low control. The enzymatic reaction was stopped by the addition of 5 μL stop/detection mixture containing 25 mM Hepes pH 7.5 100 mM EDTA, and 10 μg/mL streptavidin-coated AlphaScreen donor beads (PerkinElmer GA, USA) and incubated for 20 minutes. A 5 μL mixture containing 25 mM Hepes pH 7.5, 100 mM EDTA, and 10 μg/mL anti-phosphotyrosine antibody PY20-coated AlphaScreen acceptor beads (PerkinElmer GA, USA) was added and the plate was incubated for 1 hour at room temperature. The streptavidin donor beads bind to the biotin moiety on the biotinylated Poly (Glu4-Tyr) substrate and the PY20 antibody-coated acceptor beads bind to tyrosine residues on the substrate that have been directly phosphorylated by LCK. Upon excitation of these beads with laser light at 680 nm, singlet oxygen was produced. This singlet oxygen was rapidly quenched, unless the AlphaScreen PY20 acceptor beads are in close proximity, in which case a proximity signal can be measured at 580 nm. In the presence of catalytic activity, there was a very strong proximity signal. Selective LCK inhibitors affect a decrease in this proximity signal through a decrease in phosphorylation of the Poly (Glu4-Tyr) substrate. The percentage of inhibition at individual concentrations relative to high and low controls was calculated. The data were analyzed by using nonlinear regression to generate IC50 values.

T2 sequence (P06239 whole entry): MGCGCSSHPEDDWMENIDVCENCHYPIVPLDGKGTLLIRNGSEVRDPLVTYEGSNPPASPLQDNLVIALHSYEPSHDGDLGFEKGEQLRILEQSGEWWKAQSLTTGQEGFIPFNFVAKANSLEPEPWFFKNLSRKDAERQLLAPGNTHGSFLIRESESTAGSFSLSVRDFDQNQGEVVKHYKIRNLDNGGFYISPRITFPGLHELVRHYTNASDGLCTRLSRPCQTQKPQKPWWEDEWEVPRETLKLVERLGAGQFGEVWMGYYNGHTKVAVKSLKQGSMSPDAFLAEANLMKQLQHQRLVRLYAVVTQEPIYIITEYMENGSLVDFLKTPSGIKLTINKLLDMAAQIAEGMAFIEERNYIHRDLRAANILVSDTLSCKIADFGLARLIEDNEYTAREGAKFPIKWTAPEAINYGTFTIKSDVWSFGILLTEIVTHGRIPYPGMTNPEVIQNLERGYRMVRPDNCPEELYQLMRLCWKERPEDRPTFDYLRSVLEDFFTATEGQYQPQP
T1 sequence (P41240 whole entry): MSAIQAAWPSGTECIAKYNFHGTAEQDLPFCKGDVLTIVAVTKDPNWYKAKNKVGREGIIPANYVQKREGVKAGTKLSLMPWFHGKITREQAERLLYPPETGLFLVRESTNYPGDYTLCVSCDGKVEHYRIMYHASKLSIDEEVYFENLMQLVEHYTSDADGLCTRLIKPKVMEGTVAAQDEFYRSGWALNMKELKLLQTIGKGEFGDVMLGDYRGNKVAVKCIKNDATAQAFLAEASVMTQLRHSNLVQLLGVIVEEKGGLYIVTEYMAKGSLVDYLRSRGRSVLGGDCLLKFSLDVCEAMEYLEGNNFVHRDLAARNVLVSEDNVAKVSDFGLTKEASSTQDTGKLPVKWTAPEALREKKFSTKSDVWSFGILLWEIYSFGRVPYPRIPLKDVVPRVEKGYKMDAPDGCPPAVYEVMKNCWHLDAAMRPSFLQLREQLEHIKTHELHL

Q: How did the IC50 [1] turn out when `Nc1cc2c(cn1)cc(-c1c(F)ccc(NS(=O)(=O)c3ccc4ncsc4c3F)c1F)c(=O)n2CC1CC1` [P-0001, N-(3-(7-amino-1-(cyclopropylmethyl)-2-oxo-1,2-dihydro-1,6-naphthyridin-3-yl)-2,4-difluorophenyl)-7-fluorobenzo[d]thiazole-6-sulfonamide] was run?
A: Its IC50 is 0.001 to 0.5 µM.

Q: And the EC50 [2]?
A: Its EC50 is 0.001 to 0.5 µM.

Q: What about the IC50 [3] of the same molecule?
A: Its IC50 is 0.001 to 0.5 µM.

Q: Which IC50 [1] does the source give for `Nc1cc2c(cn1)cc(-c1c(F)ccc(NS(=O)(=O)c3cc4scnc4cc3F)c1F)c(=O)n2CC1CC1` [P-0002, N-(3-(7-amino-1-(cyclopropylmethyl)-2-oxo-1,2-dihydro-1,6-naphthyridin-3-yl)-2,4-difluorophenyl)-5-fluorobenzo[d]thiazole-6-sulfonamide] here?
A: Its IC50 is 0.001 to 0.5 µM.

Q: And the EC50 [2]?
A: The EC50 was 0.001 to 0.5 µM.

Q: And the IC50 [3]?
A: Its IC50 is 0.5 to 5 µM.

Q: Which IC50 [1] does the source give for `Nc1cc2c(cn1)cc(-c1c(F)ccc(NS(=O)(=O)c3cc4scnc4cc3F)c1F)c(=O)n2CC(F)F` [P-0003, N-(3-(7-amino-1-(2,2-difluoroethyl)-2-oxo-1,2-dihydro-1,6-naphthyridin-3-yl)-2,4-difluorophenyl)-5-fluorobenzo[d]thiazole-6-sulfonamide] here?
A: The IC50 was 0.001 to 0.5 µM.

Q: What about the EC50 [2] of the same molecule?
A: Its EC50 is 0.001 to 0.5 µM.

Q: And the IC50 [3]?
A: The IC50 was 5 to 100 µM.

Q: Which IC50 [1] does the source give for `COCCn1c(=O)c(-c2c(F)ccc(NS(=O)(=O)c3cc4scnc4cc3F)c2F)cc2cnc(N)cc21` [P-0004, N-(3-(7-amino-1-(2-methoxyethyl)-2-oxo-1,2-dihydro-1,6-naphthyridin-3-yl)-2,4-difluorophenyl)-5-fluorobenzo[d]thiazole-6-sulfonamide] here?
A: Its IC50 is 0.001 to 0.5 µM.

Q: And the EC50 [2]?
A: The EC50 was 0.5 to 5 µM.

Q: And the IC50 [3]?
A: The IC50 was 5 to 100 µM.

Q: For `CNc1cc2c(cn1)cc(-c1c(F)ccc(NS(=O)(=O)c3cc4scnc4cc3F)c1F)c(=O)n2CC1CC1` [P-0005, N-(3-(1-(cyclopropylmethyl)-7-(methylamino)-2-oxo-1,2-dihydro-1,6-naphthyridin-3-yl)-2,4-difluorophenyl)-5-fluorobenzo[d]thiazole-6-sulfonamide], which IC50 [1] is on record?
A: The IC50 was 0.001 to 0.5 µM.

Q: What about the EC50 [2] of the same molecule?
A: The EC50 was 0.001 to 0.5 µM.

Q: And the IC50 [3]?
A: Its IC50 is 5 to 100 µM.

Q: Which results are given for `CC1(n2c(=O)c(-c3c(F)ccc(NS(=O)(=O)c4cc5scnc5cc4F)c3F)cc3cnc(N)cc32)CC1` [P-0006, N-(3-(7-amino-1-(1-methylcyclopropyl)-2-oxo-1,2-dihydro-1,6-naphthyridin-3-yl)-2,4-difluorophenyl)-5-fluorobenzo[d]thiazole-6-sulfonamide]?
A: IC50 [1]: 0.001 to 0.5 µM; EC50 [2]: 0.5 to 5 µM; IC50 [3]: 5 to 100 µM

Q: `Nc1cc2[nH]c(=O)c(-c3c(F)ccc(NS(=O)(=O)c4cc5scnc5cc4F)c3F)cc2cn1` [P-0007, N-(3-(7-amino-2-oxo-1,2-dihydro-1,6-naphthyridin-3-yl)-2,4-difluorophenyl)-5-fluorobenzo[d]thiazole-6-sulfonamide] was tested. Which IC50 [1] did it give?
A: Its IC50 is 0.001 to 0.5 µM.

Q: And the EC50 [2]?
A: The EC50 was 0.5 to 5 µM.

Q: And the IC50 [3]?
A: Its IC50 is 5 to 100 µM.

Q: Which IC50 [1] does the source give for `Nc1cc2c(cn1)cc(-c1c(F)ccc(NS(=O)(=O)c3cc4scnc4cc3F)c1F)c(=O)n2C1CC1` [P-0008, N-(3-(7-amino-1-cyclopropyl-2-oxo-1,2-dihydro-1,6-naphthyridin-3-yl)-2,4-difluorophenyl)-5-fluorobenzo[d]thiazole-6-sulfonamide] here?
A: The IC50 was 0.001 to 0.5 µM.

Q: What about the EC50 [2] of the same molecule?
A: Its EC50 is 0.001 to 0.5 µM.

Q: What about the IC50 [3] of the same molecule?
A: The IC50 was 5 to 100 µM.

Q: With `Nc1cc2c(cn1)cc(-c1c(F)ccc(NS(=O)(=O)c3cc4scnc4cc3F)c1F)c(=O)n2C1CC(F)(F)C1` [P-0009, N-(3-(7-amino-1-(3,3-difluorocyclobutyl)-2-oxo-1,2-dihydro-1,6-naphthyridin-3-yl)-2,4-difluorophenyl)-5-fluorobenzo[d]thiazole-6-sulfonamide] as the molecule, how does the IC50 [1] read?
A: The IC50 was 0.001 to 0.5 µM.

Q: And the EC50 [2]?
A: The EC50 was 0.5 to 5 µM.

Q: What about the IC50 [3] of the same molecule?
A: The IC50 was 5 to 100 µM.

Q: What does the source list for `O=c1c(-c2c(F)ccc(NS(=O)(=O)c3cc4scnc4cc3F)c2F)cc2cnc(NCCO)cc2n1CC1CC1` [P-0010, N-(3-(1-(cyclopropylmethyl)-7-((2-hydroxyethyl)amino)-2-oxo-1,2-dihydro-1,6-naphthyridin-3-yl)-2,4-difluorophenyl)-5-fluorobenzo[d]thiazole-6-sulfonamide]?
A: IC50 [1]: 0.001 to 0.5 µM; EC50 [2]: 0.5 to 5 µM; IC50 [3]: 5 to 100 µM

Q: How did the IC50 [1] turn out when `COCCNc1cc2c(cn1)cc(-c1c(F)ccc(NS(=O)(=O)c3cc4scnc4cc3F)c1F)c(=O)n2CC1CC1` [P-0011, N-(3-(1-(cyclopropylmethyl)-7-((2-methoxyethyl)amino)-2-oxo-1,2-dihydro-1,6-naphthyridin-3-yl)-2,4-difluorophenyl)-5-fluorobenzo[d]thiazole-6-sulfonamide] was run?
A: Its IC50 is 0.001 to 0.5 µM.

Q: What about the EC50 [2] of the same molecule?
A: Its EC50 is 0.5 to 5 µM.

Q: What about the IC50 [3] of the same molecule?
A: The IC50 was 5 to 100 µM.

Q: `Nc1cc2c(cn1)cc(-c1c(F)ccc(NS(=O)(=O)c3ccc4ncsc4c3F)c1F)c(=O)n2C1CC1` [P-0027, N-(3-(7-amino-1-cyclopropyl-2-oxo-1,2-dihydro-1,6-naphthyridin-3-yl)-2,4-difluorophenyl)-7-fluorobenzo[d]thiazole-6-sulfonamide] was tested. Which IC50 [1] did it give?
A: The IC50 was 0.001 to 0.5 µM.

Q: And the EC50 [2]?
A: Its EC50 is 0.001 to 0.5 µM.

Q: What does the source list for `Cc1c(-c2cccc(NS(=O)(=O)c3cc4scnc4cc3F)c2F)c(=O)n(C2CC2)c2cc(N)ncc12` [P-0028, N-(3-(7-amino-1-cyclopropyl-4-methyl-2-oxo-1,2-dihydro-1,6-naphthyridin-3-yl)-2-fluorophenyl)-5-fluorobenzo[d]thiazole-6-sulfonamide]?
A: IC50 [1]: 5 to 100 µM; IC50 [3]: 5 to 100 µM

Q: `Nc1cc2c(cn1)cc(-c1cccc(NS(=O)(=O)c3cc4scnc4cc3F)c1F)c(=O)n2C1CC1` [P-0029, N-(3-(7-amino-1-cyclopropyl-2-oxo-1,2-dihydro-1,6-naphthyridin-3-yl)-2-fluorophenyl)-5-fluorobenzo[d]thiazole-6-sulfonamide] was tested. Which IC50 [1] did it give?
A: The IC50 was 0.001 to 0.5 µM.

Q: What about the IC50 [3] of the same molecule?
A: The IC50 was 5 to 100 µM.
